# Data taken from US8884061B2, “Compositions and methods of use of electron transport system inhibitors” (priority 2006, dated 2014).
# Where two headings read alike, the source gives them in different places.
# What was measured:
# VRSA 2441-T0044 = experiment: MIC, other bacteria (Table 3); assay type: cell-based, S. aureus; details: Staphylococcus aureus, VRSA
# MRSA 2441-05254 = experiment: MIC, other bacteria (Table 3); assay type: cell-based, S. aureus; details: Staphylococcus aureus, inoculum size 10^6 CFU/ml, read-out: MIC
# M. avium Flamingo = experiment: MIC, agar (7H11) dilution method; assay type: cell-based; details: Mycobacterium avium, read-out: Minimum inhibitory concentrations (MIC)
# E. faecalis ATCC 29212 = experiment: MIC, other bacteria (Table 3); assay type: cell-based; details: Enterococcus faecalis, ATCC29212, inoculum size 10^6 CFU/ml, read-out: MIC
# M. tuberculosis H37Rv = experiment: MIC, agar (7H11) dilution method; assay type: cell-based; details: Mycobacterium tuberculosis, H37RV
# MRSA 2441-05223 = experiment: MIC, other bacteria (Table 3); assay type: cell-based, S. aureus; details: Staphylococcus aureus, inoculum size 10^6 CFU/ml, read-out: MIC
# [1] = tested on: S. aureus ATCC 43300 (MRSA); experiment: MIC, other bacteria (Table 3); assay type: cell-based; details: Staphylococcus aureus, inoculum size 10^6 CFU/ml, read-out: MIC
# MRSE 2442-05030 = experiment: MIC, other bacteria (Table 3); assay type: cell-based, S. epidermidis; details: Staphylococcus epidermidis, inoculum size 10^6 CFU/ml, read-out: MIC
# MRSE 2442-05053 = experiment: MIC, other bacteria (Table 3); assay type: cell-based, S. epidermidis; details: Staphylococcus epidermidis, inoculum size 10^6 CFU/ml, read-out: MIC
# MRSE 2442-05118 = experiment: MIC, other bacteria (Table 3); assay type: cell-based, S. epidermidis; details: Staphylococcus epidermidis, inoculum size 10^6 CFU/ml, read-out: MIC
# M. tuberculosis Kurono = experiment: MIC, agar (7H11) dilution method; assay type: cell-based; details: Mycobacterium tuberculosis; M. tuberculosis Kurono; agar (7H11) dilution; read-out: Minimum inhibitory concentrations (MIC)
# M. aurum = experiment: MIC, agar (7H11) dilution method; assay type: cell-based; details: Mycolicibacterium aurum, read-out: Minimum inhibitory concentrations (MIC)
# E. coli ATCC 25922 = experiment: MIC, other bacteria (Table 3); assay type: cell-based; details: Escherichia coli, ATCC25922, inoculum size 10^6 CFU/ml, read-out: MIC
# P. aeruginosa ATCC 27853 = experiment: MIC, other bacteria (Table 3); assay type: cell-based; details: Pseudomonas aeruginosa, ATCC27853, inoculum size 10^6 CFU/ml, read-out: MIC
# P. mirabilis ATCC 4630 = experiment: MIC, other bacteria (Table 3); assay type: cell-based; details: Proteus mirabilis, ATCC4630, inoculum size 10^6 CFU/ml, read-out: MIC
# MRSE 2442-05110 = experiment: MIC, other bacteria (Table 3); assay type: cell-based, S. epidermidis; details: Staphylococcus epidermidis, inoculum size 10^6 CFU/ml, read-out: MIC
# MRSA 2441-05129 = experiment: MIC, other bacteria (Table 3); assay type: cell-based, S. aureus; details: Staphylococcus aureus, inoculum size 10^6 CFU/ml, read-out: MIC
# [2] = tested on: M. intracellularae ATCC 15984; experiment: MIC, agar (7H11) dilution method; assay type: cell-based; details: read-out: Minimum inhibitory concentrations (MIC)
# MRSA 2441-05262 = experiment: MIC, other bacteria (Table 3); assay type: cell-based, S. aureus; details: Staphylococcus aureus, inoculum size 10^6 CFU/ml, read-out: MIC
# VRSA 2441-T0041 = experiment: MIC, other bacteria (Table 3); assay type: cell-based, S. aureus; details: Staphylococcus aureus; VRSA 2441-T0041, low level VCM-resistant; inoculum size 10^6 CFU/ml; read-out: MIC
# M. smegmatis Takeo = experiment: MIC, agar (7H11) dilution method; assay type: cell-based; details: Mycolicibacterium smegmatis, read-out: Minimum inhibitory concentrations (MIC)
# [3] = tested on: E. faecalis NCTC 12201 (VRE); experiment: MIC, other bacteria (Table 3); assay type: cell-based; details: Enterococcus faecalis, high level VCM-resistant, Van A, inoculum size 10^6 CFU/ml, read-out: MIC
# [4] = tested on: E. faecalis ATCC 51299 (VRE); experiment: MIC, other bacteria (Table 3); assay type: cell-based; details: Enterococcus faecalis, low level VCM-resistant, Van B, inoculum size 10^6 CFU/ml, read-out: MIC
# MRSA 2441-05104 = experiment: MIC, other bacteria (Table 3); assay type: cell-based, S. aureus; details: Staphylococcus aureus, inoculum size 10^6 CFU/ml, read-out: MIC
# M. bovis BCG Tokyo = experiment: microbe, parasite or virus in culture; assay type: cell-based; details: Mycobacterium tuberculosis variant bovis BCG, BCG, read-out: Minimum inhibitory concentrations (MIC)
# M. kansasii NIHJ1619 = experiment: MIC, agar (7H11) dilution method; assay type: cell-based; details: Mycobacterium kansasii, read-out: Minimum inhibitory concentrations (MIC)
# S. marsascens ATCC 14756 = experiment: MIC, other bacteria (Table 3); assay type: cell-based; details: inoculum size 10^6 CFU/ml, read-out: MIC
# MRSA 2441-05112 = experiment: MIC, other bacteria (Table 3); assay type: cell-based, S. aureus; details: Staphylococcus aureus, inoculum size 10^6 CFU/ml, read-out: MIC
# K. pneumoniae ATCC 27736 = experiment: MIC, other bacteria (Table 3); assay type: cell-based; details: Klebsiella pneumoniae, ATCC27736, inoculum size 10^6 CFU/ml, read-out: MIC
# MRSE 2442-05047 = experiment: MIC, other bacteria (Table 3); assay type: cell-based, S. epidermidis; details: Staphylococcus epidermidis, inoculum size 10^6 CFU/ml, read-out: MIC
# E. faecium ATCC 49224 = experiment: MIC, other bacteria (Table 3); assay type: cell-based; details: Enterococcus faecium, ATCC49224; E. faecium ATCC 49224, GM-resistant; inoculum size 10^6 CFU/ml; read-out: MIC
# MRSE 2442-05060 = experiment: MIC, other bacteria (Table 3); assay type: cell-based, S. epidermidis; details: Staphylococcus epidermidis, inoculum size 10^6 CFU/ml, read-out: MIC
# S. aureus ATCC 29213 = experiment: MIC, other bacteria (Table 3); assay type: cell-based; details: Staphylococcus aureus, ATCC29213, inoculum size 10^6 CFU/ml, read-out: MIC
# [5] = tested on: E. faecium NCTC 12203 (VRE); experiment: MIC, other bacteria (Table 3); assay type: cell-based; details: Enterococcus faecium, high level VCM-resistant, Van A, inoculum size 10^6 CFU/ml, read-out: MIC
# M. fortuitum NIHJ1615 = experiment: MIC, agar (7H11) dilution method; assay type: cell-based; details: Mycolicibacterium fortuitum, read-out: Minimum inhibitory concentrations (MIC)
# [6] = tested on: S. epidermidis ATCC 12228; experiment: MIC, other bacteria (Table 3); assay type: cell-based; details: Staphylococcus epidermidis, ATCC12228, inoculum size 10^6 CFU/ml, read-out: MIC
smiles,measurement,setting,value
"C=CCN(C)CCCCCCCCOc1ccc(C(O)c2ccc(Cl)cc2)c(Cl)c1 (stereo not shown) [Cpd #21, (4-(8-(allyl(methyl)amino)octyloxy)-2-chlorophenyl)(4-chlorophenyl)methanol]",MIC,VRSA 2441-T0044,> 100 µg/mL
same,MIC,MRSA 2441-05254,> 100 µg/mL
same,MIC,M. avium Flamingo,> 25 µg/mL
same,MIC,E. faecalis ATCC 29212,100 µg/mL
same,MIC,"M. tuberculosis H37Rv; M. tuberculosis H37Rv, table line r9 (3rd of 5 so labelled), read-out: Minimum inhibitory concentrations (MIC)",12.5 µg/mL
same,MIC,"M. tuberculosis H37Rv; read-out: Minimum inhibitory concentrations (MIC), M. tuberculosis H37Rv, table line r7 (1st of 5 so labelled)",25 µg/mL
same,MIC,"M. tuberculosis H37Rv; read-out: Minimum inhibitory concentrations (MIC), M. tuberculosis H37Rv, table line r8 (2nd of 5 so labelled)",25 µg/mL
same,MIC,"M. tuberculosis H37Rv; read-out: Minimum inhibitory concentrations (MIC), M. tuberculosis H37Rv, table line r10 (4th of 5 so labelled)",25 µg/mL
same,MIC,"M. tuberculosis H37Rv; read-out: Minimum inhibitory concentrations (MIC), M. tuberculosis H37Rv, table line r11 (5th of 5 so labelled)",25 µg/mL
same,MIC,MRSA 2441-05223,> 100 µg/mL
same,MIC,[1],100 µg/mL
same,MIC,MRSE 2442-05030,50 µg/mL
same,MIC,MRSE 2442-05053,50 µg/mL
same,MIC,MRSE 2442-05118,50 µg/mL
same,MIC,M. tuberculosis Kurono,25 µg/mL
same,MIC,M. aurum,> 25 µg/mL
same,MIC,E. coli ATCC 25922,> 100 µg/mL
same,MIC,P. aeruginosa ATCC 27853,> 100 µg/mL
same,MIC,P. mirabilis ATCC 4630,> 100 µg/mL
same,MIC,MRSE 2442-05110,50 µg/mL
same,MIC,MRSA 2441-05129,> 100 µg/mL
same,MIC,[2],> 25 µg/mL
same,MIC,MRSA 2441-05262,100 µg/mL
same,MIC,VRSA 2441-T0041,> 100 µg/mL
same,MIC,M. smegmatis Takeo,> 25 µg/mL
same,MIC,[3],100 µg/mL
same,MIC,[4],> 100 µg/mL
same,MIC,MRSA 2441-05104,50 µg/mL
same,MIC,M. bovis BCG Tokyo,25 µg/mL
same,MIC,M. kansasii NIHJ1619,> 25 µg/mL
same,MIC,S. marsascens ATCC 14756,> 100 µg/mL
same,MIC,MRSA 2441-05112,> 100 µg/mL
same,MIC,K. pneumoniae ATCC 27736,> 100 µg/mL
same,MIC,MRSE 2442-05047,50 µg/mL
same,MIC,E. faecium ATCC 49224,50 µg/mL
same,MIC,MRSE 2442-05060,50 µg/mL
same,MIC,S. aureus ATCC 29213,100 µg/mL
same,MIC,[5],50 µg/mL
same,MIC,M. fortuitum NIHJ1615,> 25 µg/mL
same,MIC,[6],50 µg/mL
